Patent publication US8394769B2, “Anti-hypertensive agent” (MG Pharma Inc., priority 2007, dated 2013)

System: Spontaneously hypertensive rats (SHR/Izm)
Test: Systolic blood pressure in spontaneously hypertensive rats after single dose of synthesized peptides (2) to (6) (tail-cuff method)
Assay type: in vivo, rat
Conditions: single dose 50 mg/kg body weight, *p < 0.05, **p < 0.01
Text: The following peptides were synthesized according to known methods, based on the amino acid sequences of peptides isolated from the globin proteolysate prepared in Experimental Example 3 and identified. The peptide (WGKV; SEQ ID NO:3) (3) corresponds to a peptide produced by one amino acid deletion at the C terminus from the amino acid sequence of the peptide (WGKVN; SEQ ID NO:2) (2), and the peptide (WGK; SEQ ID NO:4) (4) corresponds to a peptide produced by deleting a further amino acid at the C terminus.
Spontaneously hypertensive rats (SHR/Izm, male, 12-week-old, body weight: 285 g, Japan SLC, Inc.) were administered in a single dose with the peptides synthesized above (peptides (2) to (6)) in an amount of 50 mg/kg body weight. Two, four, and six hours after the start of administration, the systolic blood pressures of the rats were measured using a non-heating non-invasive blood pressure monitor (“MK-2000”, manufactured by Muromachi Kikai Co., Ltd.) by the tail-cuff method without using anesthesia. Spontaneously hypertensive rats as a control group were orally administered with a solvent (distilled water), and the systolic blood pressures of the rats were measured in a similar manner.

| Substance | Reduction in blood pressure, 2 hours after administration | Reduction in blood pressure, 4 hours after administration | Reduction in blood pressure, 6 hours after administration |
| --- | --- | --- | --- |
| Ala-Ala-Trp-Gly-Lys (AAWGK; Peptide found in globin hydrolysate) | −7 ± 4 mmHg | −8 ± 12 mmHg | −4 ± 8 mmHg |
| Phe-Glu-Ser (FES; Peptide found in globin hydrolysate) | −15 ± 4* mmHg | −13 ± 8 mmHg | −15 ± 6 mmHg |
| Trp-Gly-Lys (WGK; Peptide found in globin hydrolysate) | −3 ± 7 mmHg | −23 ± 8** mmHg | −15 ± 8 mmHg |
| Trp-Gly-Lys-Val (WGKV; Peptide found in globin hydrolysate) | −9 ± 3 mmHg | −4 ± 4 mmHg | −3 ± 3 mmHg |
| Trp-Gly-Lys-Val-Asn (WGKVN; Peptide found in globin hydrolysate) | −16 ± 4** mmHg | −12 ± 4* mmHg | −14 ± 3** mmHg |
